Laboratory results published in patent US20220257706A1, “EPIDERMAL GROWTH FACTOR RECEPTOR (EGFR) LIGANDS” (NANYANG TECHNOLOGICAL UNIVERSITY, priority 2019, published 2022).

Legend:
[1] = tested on: STZ-induced diabetic C57BL/6 mice; assay: Full-thickness splinted excisional wound healing in streptozotocin-induced diabetic C57BL/6 mice; type: in vivo, mouse; conditions: 1 nmol/wound topical, five consecutive days
Description: Full-thickness 5-mm splinted excisional wounding of mice was performed. Briefly, mice were anesthetized using an intraperitoneal injection of sodium pentobarbital (50 mg kg^−1). The hair of the back was shaved with an electric clipper followed by a depilatory cream. Using a 5-mm-diameter sterile biopsy punch, symmetrical full-thickness excisional wounds were created. Splints were placed around the wound using adhesive glue and secured with four interrupted sutures. The wounds and splints were covered with Tegaderm (3M, US). At indicated days within the 14 days post-injury course, wound diameters were measured. The size of wound was calculated from the average of two diameter measurements along the x and y axis.
Diabetes was induced into C57BL/6 mice by two intraperitoneal injection (80 mg/kg) of STZ at day 1 and 5. Starting from day 8, blood glucose was monitored regularly for two weeks. […] Blood glucose was also monitored at day 14 post-injury to ensure the mice are diabetic.

[2] = tested on: pepsin, trypsin, pronase, human neutrophil elastase; assay: Proteolytic stability against a panel of proteases; conditions: human
Description: (§1) Samples were collected at various time points.
(§2) All collected samples from various stability assays were analyzed by RP-HPLC with a linear gradient of mobile phase A (0.05% TFA/H2O) and mobile phase B (0.05% TFA/ACN) on aeris peptide XB-C18 column (Phenomenex, US). The resulting peaks were collected and identified by MALDI-TOF MS. The results were expressed as percentage of initial concentration using the peak area of the HPLC profile.

HaCaT cells = assay: EdU incorporation assay (DNA synthesis); type: cell-based, human
Description: EdU incorporation assay was performed using an EdU proliferative kit (iFluor 488) according to manufacturer's instructions. Briefly, 2.5×10^4 HaCaT cells per well were seeded in a 96-well plate. […] Cells were then fixed, permeabilized, and incubated in a reaction mix containing iFluor 488 for 30 min. The nuclei were stained using DAPI. The plates were visualized using a fluorescence microscope.

HUVEC-CS cells = assay: Endothelial tube formation assay; type: cell-based; conditions: data not shown
Description: Endothelial tube formation assay was performed using a μ-slide (ibidi, Germany). Briefly, 10 μL of gel matrix (BD Matrigel™ Basement Membrane Matrix) was casted onto each μ-slide well and left to solidify. […] After incubation for 2 h, the wells were photographed using inverted phase-contrast microscope. Images were analyzed for the numbering of branching points using the Wimasis image analysis platform.

c-Jun = assay: Gene expression analysis (qPCR) of c-Jun in HaCaT cells; type: cell-based, human; conditions: 2 h treatment
Description: Total RNA was extracted from HaCaT and primary human keratinocytes using PureLink™ RNA mini kit (Thermo Fisher Scientific, US). First-strand cDNA was synthesised from 600 ng of total RNA using SuperScript™ II Reverse Transcriptase and Oligo(dT)12-18 (Thermo Fisher Scientific, US) according to the manufacturer's instructions. Quantitative PCR (qPCR) was performed with iTaq Universal SYBR Green Supermix (Bio-Rad, US) on a CFX96 Touch Real-Time PCR Detection System (Bio-Rad, US) for 40 cycles. PCR reaction (20 μL): 3 μL cDNA, 1 μL primer mix (10 μM), 6 μL DEPC-treated water and 10 μL mastermix. […] GAPDH was used as a housekeeping gene for normalization. Fold changes of gene expressions with c-fos and c-Jun were calculated using the 2^−ΔΔCT method.

EGFR [3] = target: T1, EGFR (Homo sapiens, UniProt P00533); assay: TR-FRET EGFR ligand binding assay (competitive displacement of biotin-EGF); set-up: purchased PerkinElmer
Description: TR-FRET ratio was measured using a microplate reader in dual emission mode (Excitation: 340 nm, emission: 665 nm and 615 nm) (Cytation 1, US). […] (SEQ ID NO:11) or roseltide rT7 with an amino acid sequence of […] (SEQ ID NO:17) were used as negative control.
Target sequence in this assay (P00533 25-645 limits assumed): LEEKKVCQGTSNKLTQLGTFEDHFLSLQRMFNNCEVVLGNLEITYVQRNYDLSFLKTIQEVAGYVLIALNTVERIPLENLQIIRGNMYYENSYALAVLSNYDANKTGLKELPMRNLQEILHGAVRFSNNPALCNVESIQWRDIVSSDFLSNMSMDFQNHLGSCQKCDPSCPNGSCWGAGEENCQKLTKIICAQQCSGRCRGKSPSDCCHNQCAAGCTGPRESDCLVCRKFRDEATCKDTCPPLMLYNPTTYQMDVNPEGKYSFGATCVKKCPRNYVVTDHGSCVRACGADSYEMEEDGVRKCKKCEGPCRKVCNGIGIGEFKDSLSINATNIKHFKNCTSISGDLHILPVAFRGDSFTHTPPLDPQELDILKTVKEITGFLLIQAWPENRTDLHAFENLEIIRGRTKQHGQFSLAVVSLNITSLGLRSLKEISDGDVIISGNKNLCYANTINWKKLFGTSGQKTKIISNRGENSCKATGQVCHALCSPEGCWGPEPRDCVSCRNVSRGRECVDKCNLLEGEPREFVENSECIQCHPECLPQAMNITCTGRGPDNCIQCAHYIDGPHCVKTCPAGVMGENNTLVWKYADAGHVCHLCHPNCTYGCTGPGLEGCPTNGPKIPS

EGFR [4] = target: T1, EGFR; assay: Immunoprecipitation / western blot of EGFR tyrosine phosphorylation in HaCaT cells; type: cell-based; set-up: endogenous in cells; host or cells: HaCaT; conditions: 5 μM
Description: Immunoprecipitation was performed using EGFR (D38B1) rabbit monoclonal antibodies conjugated to magnetic beads (Cell Signaling, US). Briefly, the magnetic beads were washed with PBS three times and 50 μg HaCaT cell lysate was added to each tube and allowed to incubate overnight at 4° C. with rotation. After incubation, the magnetic beads were washed five times with PBS. A 6× loading dye with β-mercaptoethanol was added to the resin and heated for 10 min at 85° C. The resultant mixture was centrifuged at 14000 g×1 min and resolved using 10% SDS-PAGE at a 100 V constant for 120 min. Blot transfer was performed on a PVDF membrane (GE healthcare, Sweden) at 250 mA for 120 min on ice. The blot was blocked with 5% BSA TBST before incubating overnight at 4° C. with anti-phosphotyrosine-HRP (R&D systems, US) or anti-EGFR anti-rabbit antibody (1:1000 in 5% BSA TBST; Cell Signaling, US). After incubation, the membrane was washed with TBST at room temperature for three times at 10 min each. The blot was then incubated with secondary anti-rabbit horseradish peroxidase (HRP) (1:5000 in 5% BSA TBST) and was incubated for another 1 h at room temperature. The blot was washed five times 10 min each with TBST at room temperature before the addition of chemiluminescence substrate (Advansta, US) and exposure on X-ray film (Fujifilm, Japan).
Target sequence in this assay (P00533 25-1210): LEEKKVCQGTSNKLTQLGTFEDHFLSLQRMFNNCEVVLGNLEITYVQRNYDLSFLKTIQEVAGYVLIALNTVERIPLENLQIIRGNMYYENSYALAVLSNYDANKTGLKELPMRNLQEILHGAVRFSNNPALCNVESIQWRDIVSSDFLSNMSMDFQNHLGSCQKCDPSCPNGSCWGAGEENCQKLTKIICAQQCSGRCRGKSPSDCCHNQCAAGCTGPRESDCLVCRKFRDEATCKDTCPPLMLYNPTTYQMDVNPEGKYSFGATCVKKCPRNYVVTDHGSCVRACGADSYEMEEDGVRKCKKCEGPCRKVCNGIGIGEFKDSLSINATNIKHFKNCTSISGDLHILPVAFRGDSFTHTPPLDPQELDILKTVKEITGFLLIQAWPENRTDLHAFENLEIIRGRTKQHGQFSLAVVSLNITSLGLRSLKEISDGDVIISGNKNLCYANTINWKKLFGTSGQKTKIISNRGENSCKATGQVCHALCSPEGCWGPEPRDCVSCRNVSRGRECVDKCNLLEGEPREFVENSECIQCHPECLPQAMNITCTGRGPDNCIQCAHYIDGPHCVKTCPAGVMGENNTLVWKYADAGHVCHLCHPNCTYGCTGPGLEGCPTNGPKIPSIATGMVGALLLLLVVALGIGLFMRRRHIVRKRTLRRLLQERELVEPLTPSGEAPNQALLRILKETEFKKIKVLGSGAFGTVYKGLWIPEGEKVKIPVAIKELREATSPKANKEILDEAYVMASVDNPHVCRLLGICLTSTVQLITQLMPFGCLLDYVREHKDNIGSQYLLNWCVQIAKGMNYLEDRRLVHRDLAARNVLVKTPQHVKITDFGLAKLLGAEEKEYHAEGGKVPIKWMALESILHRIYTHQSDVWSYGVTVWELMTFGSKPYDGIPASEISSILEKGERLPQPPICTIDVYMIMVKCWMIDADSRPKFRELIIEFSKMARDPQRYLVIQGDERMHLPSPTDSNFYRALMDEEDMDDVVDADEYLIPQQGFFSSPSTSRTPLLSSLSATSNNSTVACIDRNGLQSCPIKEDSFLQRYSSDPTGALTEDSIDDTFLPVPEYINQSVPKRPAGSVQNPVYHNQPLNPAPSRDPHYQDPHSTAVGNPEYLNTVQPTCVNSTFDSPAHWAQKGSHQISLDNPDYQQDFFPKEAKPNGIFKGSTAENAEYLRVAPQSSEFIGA

[5] = Heat stability (100° C., RP-HPLC); type: physicochemical; conditions: 100° C.; read-out: calculated t1/2, heat treatment
Description: Samples were collected at various time points (0, 30, 60, and 120 min).

[6] = Acid stability (0.2 M HCl, 37° C.)
Description: as §1, §2

In the case of `CC[C@H](C)[C@@H]1NC(=O)[C@H](CCC(=O)O)NC(=O)[C@H]([C@@H](C)O)NC(=O)[C@@H]2CSSC[C@@H]3NC(=O)[C@H](Cc4ccccc4)NC(=O)[C@H](CC(N)=O)NC(=O)[C@H](CO)NC(=O)[C@H](CSSC[C@H](NC(=O)[C@@H](N)CCC(N)=O)C(=O)N[C@@H](CCCCN)C(=O)N4CCC[C@H]4C(=O)N[C@@H](CC(N)=O)C(=O)NCC(=O)N[C@@H](C)C(=O)N[C@@H](CCCCN)C(=O)N2)NC(=O)[C@H](CSSC[C@@H](C(=O)N[C@@H](C)C(=O)N[C@@H](CC(N)=O)C(=O)N[C@@H](CCCNC(=N)N)C(=O)O)NC(=O)[C@H]([C@@H](C)O)NC(=O)CNC(=O)[C@H](CO)NC(=O)[C@H](CCCCN)NC(=O)[C@H](CCC(N)=O)NC(=O)CNC(=O)[C@H](C)NC(=O)[C@H](Cc2ccc(O)cc2)NC(=O)[C@H](CCCNC(=N)N)NC(=O)[C@H](CC(C)C)NC3=O)NC(=O)[C@@H]2CCCN2C(=O)[C@@H]2CCCN2C(=O)[C@H]([C@@H](C)CC)NC(=O)[C@H](CO)NC1=O` [bleogen pB1], the “wound healing rate vs vehicle control in STZ-induced diabetic mice” value [1] is reported as “healed at a significantly faster rate starting from day 4 post-injury”, the half-life at 0.1 M [2] is reported as > 8.33 h and the “DNA synthesis of HaCaT cells (EdU incorporation)” value (HaCaT cells) is reported as “enhances DNA synthesis”. The “endothelial cell tube formation” value (HUVEC-CS cells) was “accelerate”, the “mRNA expression of c-Jun” value (c-Jun) was “significantly upregulate” and the IC50 (EGFR [3]) was 1720 ± 0.075 nM. The “potency relative to EGF in receptor displacement (fold less potent)” value (EGFR [3]) was 50-100 fold, the “phosphorylation of EGFR” value (EGFR [4]) was “induces the phosphorylation” and the half-life at 0.1 M [5] was > 8.33 h. The half-life at 0.1 M [6] was > 8.33 h.
